In US20260337156A1, “SOLUBILIZING COMPOUNDS” (Vivesto AB, priority 2022, published 2026):

Assay: micellar particle size and polydispersity index (ZetaSizer, dynamic light scattering) of drug formulations at different dilutions
Assay type: physicochemical
Procedure: The particle size of the micelles in the composition is typically in the range of about 5 to about 150 nm. The particle size may be determined e.g. using Dynamic Light Scattering (DLS) in 0.9% NaCl at 1 mg/mL drug concentration, preferably using a red laser with a wavelength of 633 nm.
Micellar size was measured using a ZetaSizer from Malvern Panalytical. […]
20 mg of example 1 was dispensed into a 25 mL round bottom flask and dissolved in methanol (3 mL). 800 μL of a stock solution of docetaxel in methanol (5 mg/mL) was added. The solution was evaporated to dryness in a rotary evaporator. Final drying was performed in a desiccator to remove residual solvent. Hydration of the dried film was performed by adding water for injection (1.0 mL) to a concentration of 4 mg/mL of docetaxel. The 4 mg/mL concentration was further diluted with 0.9% sodium chloride according to the table below. […]
A serial dilution was performed for the system docetaxel:compound 1. A stock solution of docetaxel in methanol was mixed with a stock solution of the micelle forming agent (compound 1) in a round bottom flask at a weight ratio of 1:5. The mixture was evaporated to dryness in a rotary evaporator. Final drying was performed in a desiccator to remove residual solvent. Hydration of the dried film was performed by adding water for injection (1.0 mL) to a concentration of 1 mg/mL of docetaxel. The resulting solution was filtered through a 0.22 μm sterile filter and further diluted with 0.9% sodium chloride solution.
4.5 mg of compound 1 was dispensed into a 25 mL round bottom flask and dissolved in methanol (2 mL). 1500 μL of a stock solution of cabazitaxel in methanol (1.00 mg/mL) was added. The solution was evaporated to dryness in a rotary evaporator. Final drying was performed in a desiccator to remove residual solvent. […]

[1] = micelles with cabazitaxel, ratio 3:1, 0.9% NaCl, cabazitaxel conc. 0.25 mg/mL
[2] = micelles with cabazitaxel, ratio 3:1, 0.9% NaCl, cabazitaxel conc. 0.5 mg/mL
[3] = micelles with cabazitaxel, ratio 3:1, 0.9% NaCl, cabazitaxel conc. 1 mg/mL
[4] = micelles with cyclosporin, ratio 3:1, 0.9% NaCl, cyclosporin conc. 0.25 mg/mL
[5] = micelles with cyclosporin, ratio 3:1, 0.9% NaCl, cyclosporin conc. 0.5 mg/mL
[6] = micelles with cyclosporin, ratio 3:1, 0.9% NaCl, cyclosporin conc. 1 mg/mL
[7] = micelles with docetaxel, ratio 3:1, 0.9% NaCl, docetaxel conc. 0.25 mg/mL
[8] = micelles with docetaxel, ratio 3:1, 0.9% NaCl, docetaxel conc. 0.5 mg/mL
[9] = micelles with docetaxel, ratio 3:1, 0.9% NaCl, docetaxel conc. 1 mg/mL
[10] = micelles with docetaxel, ratio 5:1, docetaxel conc. 0.25 mg/mL
[11] = micelles with docetaxel, ratio 5:1, docetaxel conc. 0.5 mg/mL
[12] = micelles with docetaxel, ratio 5:1, docetaxel conc. 1 mg/mL
[13] = micelles with docetaxel, 1.2 mg docetaxel + 3.8 mg compound, water 1.2 mL + 0.9% NaCl 1.0 mL
[14] = serial dilution, docetaxel:compound 1:5, compound conc. 0.08 mM
[15] = serial dilution, docetaxel:compound 1:5, compound conc. 0.12 mM
[16] = serial dilution, docetaxel:compound 1:5, compound conc. 0.15 mM
[17] = serial dilution, docetaxel:compound 1:5, compound conc. 0.3 mM
[18] = serial dilution, docetaxel:compound 1:5, compound conc. 0.6 mM
[19] = serial dilution, docetaxel:compound 1:5, compound conc. 1.2 mM
[20] = serial dilution, docetaxel:compound 1:5, compound conc. 2.4 mM
[21] = serial dilution, docetaxel:compound 1:5, compound conc. 4.8 mM
[22] = micelles with docetaxel, ratio 2:1, 0.9% NaCl, docetaxel conc. 0.25 mg/mL
[23] = micelles with docetaxel, ratio 2:1, 0.9% NaCl, docetaxel conc. 0.5 mg/mL
[24] = micelles with docetaxel, ratio 2:1, 0.9% NaCl, docetaxel conc. 1 mg/mL

SMILES: COc1cc(C)c(/C=C/C(C)=C/C=C/C(C)=C/C(=O)N(CCS(=O)(=O)[O-])C2CCCCC2)c(C)c1C.[Na+] [Compound 1]
- trend of micellar size and RSD during dilution (docetaxel:compound 1:5, serial dilution with 0.9% NaCl): The micellar size and RSD showed no significant trend during dilution
- Particle size [1]: 121.2 nm
- Polydispersity index [1]: 0.079
- Particle size [2]: 111.2 nm
- Polydispersity index [2]: 0.102
- Particle size [3]: 87.6 nm
- Polydispersity index [3]: 0.145
- Particle size [4]: 60.1 nm
- Polydispersity index [4]: 0.258
- Particle size [5]: 53.3 nm
- Polydispersity index [5]: 0.293
- Particle size [6]: 41.7 nm
- Polydispersity index [6]: 0.212
- Particle size [7]: 56.0 nm
- Polydispersity index [7]: 0.29
- Particle size [8]: 52.6 nm
- Polydispersity index [8]: 0.25
- Particle size [9]: 47.7 nm
- Polydispersity index [9]: 0.24
- Particle size [10]: 49.6 nm
- Polydispersity index [10]: 0.25
- Particle size [11]: 41.5 nm
- Polydispersity index [11]: 0.24
- Particle size [12]: 29.2 nm
- Polydispersity index [12]: 0.24
- Particle size [13]: 7.0 nm
- Polydispersity index [13]: 0.20
- Particle size [14]: 33.73 nm
- Polydispersity index, pdi [14]: 0.45
- Particle size [15]: 32.72 nm
- Polydispersity index, pdi [15]: 0.39
- Particle size [16]: 34.06 nm
- Polydispersity index, pdi [16]: 0.34
- Particle size [17]: 37.85 nm
- Polydispersity index, pdi [17]: 0.25
- Particle size [18]: 36.53 nm
- Polydispersity index, pdi [18]: 0.18
- Particle size [19]: 36.5 nm
- Polydispersity index, pdi [19]: 0.16
- Particle size [20]: 36.2 nm
- Polydispersity index, pdi [20]: 0.14
- Particle size [21]: 35.4 nm
- Polydispersity index, pdi [21]: 0.11

SMILES: COc1cc(C)c(/C=C/C(C)=C/C=C/C(C)=C/C(=O)N(C)CCS(=O)(=O)[O-])c(C)c1C.[Na+] [Compound 3]
- Particle size [22]: 14.0 nm
- Polydispersity index [22]: 0.53
- Particle size [23]: 19.9 nm
- Polydispersity index [23]: 0.76
- Particle size [24]: 13.5 nm
- Polydispersity index [24]: 0.52
- Particle size [7]: 11.8 nm
- Polydispersity index [7]: 0.27
- Particle size [8]: 11.3 nm
- Polydispersity index [8]: 0.25
- Particle size [9]: 9.30 nm
- Polydispersity index [9]: 0.33
